{
  "source": "patent US10183949B2",
  "about": "“Pyrimidinone derivative having autotaxin-inhibitory activity” (The University of Tokyo, priority 2014, dated 2019)",
  "data": [
    {"molecular_target": "T1, Human autotaxin enzyme (Homo sapiens, UniProt Q13822)", "T1 construct": "purchased R&D System", "assay": "Evaluation of autotaxin inhibitor, 18:0 Lyso PC / choline assay (Test Example 2)", "assay_type": "biochemical", "details": "autotaxin inhibition, IC50 class; read-out: Inhibitor activity", "summary_of_the_method": "(§1)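 Inhibition derived from concentration-dependent curves, scaled between no-compound (0%) and no-enzyme (100%) wells. Choline generated from 18:0 Lyso PC (200 μM stock) by human enzyme over 2 h at room temperature (Tris-HCl pH 7.5, NaCl, MgCl2, Triton X-100) read as resorufin fluorescence, 531/598 nm, after choline oxidase-peroxidase coupling.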", "units": {"IC50": "nM"}, "values": [
      {"smiles": "CCc1nc(-c2ccc(Cl)cc2NC(C)=O)cc(=O)n1CC(=O)NC1(C#N)CC1", "note": "[Compound I-0256]", "IC50": "10 to 100"}
    ]},
    {"molecular_target": "T1, Human autotaxin enzyme", "assay": "Evaluation of autotaxin inhibitor, 18:0 Lyso PC / choline assay (Test Example 2)", "assay_type": "biochemical", "details": "human autotaxin enzyme, 18:0 Lyso PC substrate, choline assay, room temperature 2 hours; read-out: Inhibitor activity (IC50)", "summary_of_the_method": "as §1", "units": {"IC50": "nM"}, "values": [
      {"smiles": "O=C(NC(CO)(CO)CO)c1cccc(Cn2c(CCCC(F)(F)F)nc(-c3ccc(Cl)cc3)cc2=O)c1", "note": "[Compound I-0188]", "IC50": "100 to 1000"},
      {"smiles": "CCCCCc1nc(-c2ccc(Cl)cc2)cc(=O)n1CC(=O)N1CCN(CC(=O)O)CC1", "note": "[Compound I-0048]", "IC50": "< 10"},
      {"smiles": "O=C(Cn1c(CCCC(F)(F)F)nc(-c2ccc(C(F)(F)F)cc2)cc1=O)NCC1CCO1", "note": "(centres unmarked) [Compound I-0318]", "IC50": "10 to 100"},
      {"smiles": "Cc1noc(CNC(=O)Cn2c(CCCC(F)(F)F)nc(-c3ccc(Cl)cc3)cc2=O)n1", "note": "[Compound I-0141]", "IC50": "10 to 100"},
      {"smiles": "CC(C)(C)C(=O)Nc1cc(Cl)ccc1-c1cc(=O)n(Cc2cccc(C(=O)Nc3cnccc3O)c2)cn1", "note": "[Compound I-0491]", "IC50": "100 to 1000"},
      {"smiles": "N#CC1(NC(=O)Cn2c(CCCC(F)(F)F)nc(-c3ccc(Cl)cc3O)cc2=O)CC1", "note": "[Compound I-0226]", "IC50": "100 to 1000"},
      {"smiles": "Cc1nc(-c2ccc(Cl)cc2NC(=O)C2CC2)cc(=O)n1CC(=O)N1CCC(O)CC1", "note": "[Compound I-0435]", "IC50": "10 to 100"},
      {"smiles": "Cc1nc(-c2ccc(Cl)cc2NC(=O)C2CC2)cc(=O)n1CC(=O)NCC1CNC(=O)C1", "note": "(centres unmarked) [Compound I-0451]", "IC50": "10 to 100"},
      {"smiles": "CC(C)(C)C(=O)Nc1cc(Cl)ccc1-c1cc(=O)n(Cc2cccc(C(=O)NCC(N)=O)c2)cn1", "note": "[Compound I-0478]", "IC50": "100 to 1000"},
      {"smiles": "O=C(Cn1c(CCCC(F)(F)F)nc(-c2ccc(Cl)cc2CO)cc1=O)NCC1(CO)COC1", "note": "[Compound I-0334]", "IC50": "10 to 100"},
      {"smiles": "COCCCc1nc(-c2ccc(Cl)cc2)cc(=O)n1CC(=O)NCC1(CO)CC1", "note": "[Compound I-0231]", "IC50": "100 to 1000"},
      {"smiles": "N#CCc1cc(OC(F)(F)F)ccc1-c1cc(=O)n(CC(=O)NC2(C#N)CC2)c(CCCC(F)(F)F)n1", "note": "[Compound I-0220]", "IC50": "10 to 100"},
      {"smiles": "N#CCCCOc1nc(-c2ccc(Cl)cc2)cc(=O)n1CC(=O)NC(Cc1ccccc1)C(=O)O", "note": "(centres unmarked) [Compound I-0116]", "IC50": "10 to 100"},
      {"smiles": "COC(=O)Nc1cc(C#N)ccc1-c1cc(=O)n(CC(=O)OC(C)(C)C)c(C)n1", "note": "[Compound I-0263]", "IC50": "< 10"},
      {"smiles": "CC(O)CNC(=O)Cn1c(CCCC(F)(F)F)nc(-c2ccc(C(F)(F)F)cc2)cc1=O", "note": "(centres unmarked) [Compound I-0303]", "IC50": "10 to 100"},
      {"smiles": "Cc1nc(-c2ccc(Cl)cc2NC(=O)C(C)(C)C)cc(=O)n1CC(=O)NC1(C#N)CC1", "note": "[Compound I-0376]", "IC50": "10 to 100"},
      {"smiles": "CCCCCc1nc(-c2ccc(Cl)cc2)cc(=O)n1CC(=O)N1CCC(CC(=O)O)CC1", "note": "[Compound I-0045]", "IC50": "< 10"},
      {"smiles": "CN(CC#N)C(=O)Cn1c(CCCC(F)(F)F)nc(-c2ccc(C(F)(F)F)cc2)cc1=O", "note": "[Compound I-0297]", "IC50": "10 to 100"},
      {"smiles": "COC(=O)Nc1cc(Cl)ccc1-c1cc(=O)n(CC(=O)OC(C)(C)C#N)c(C)n1", "note": "[Compound I-0375]", "IC50": "< 10"},
      {"smiles": "CC(=O)NCCNC(=O)c1cccc(Cn2c(CCCC(F)(F)F)nc(-c3ccc(Cl)cc3)cc2=O)c1", "note": "[Compound I-0156]", "IC50": "100 to 1000"},
      {"smiles": "Cc1nc(-c2ccc(C#N)cc2NC(=O)C(C)(C)C)cc(=O)n1CC(=O)NC1(c2nc(=O)o[nH]2)CC1", "note": "[Compound I-0385]", "IC50": "10 to 100"},
      {"smiles": "N#Cc1ccc(-c2cc(=O)n(CC(=O)NC3(C#N)CC3)c(CCCC(F)(F)F)n2)c(F)c1", "note": "[Compound I-0235]", "IC50": "< 10"}
    ]}
  ]
}
